Assay results taken from patent US20060135607A1, “Drug for improving prognosis for subarachnoid hemorrhage” (MOCHIDA PHARMACEUTICAL CO., LTD., priority 2003, published 2006).

System: patients with subarachnoid hemorrhage
Assay: Clinical study of postoperative EPA administration in patients with subarachnoid hemorrhage caused by ruptured aneurysm (GOS, survival, adverse events)
Assay type: in vivo, human
Text: Sixty four patients with subarachnoid hemorrhage caused by the ruptured aneurysm and subjected to surgical operations by the third day after onset (22 males and 42 females of the ages from 30's-80's) were divided into two groups (each having 32 individuals) designated as an EPA-administration group and an EPA-non-administration group. In addition, no difference was recognized in their background factors of both groups. Just after the operation, the EPA administration group received the administration of ethyl eicosapentaenoate (trade name: Epadel, manufactured by Mochida Pharmaceutical Co., Ltd.), 1,800 mg divided in three-doses a day for 14 days. Subsequently, the administration was continued during the hospital stay. At the stage of being impossible to dietary intake, tube-feedings were carried out. EPA suspended in hot water was administered through a stomach tube (Magen Sonde). At that time, for enhancing the absorption of EPA, 50 mg of Urso granule (manufactured by Mitsubishi Pharma Corporation) was administered through the stomach tube 15 minutes before EPA administration. At the stage of being possible to dietary intake, a commercial EPA preparation was administered orally. Furthermore, both groups were treated in combination with basic treatments on subarachnoid hemorrhage. However, some of the drugs were defined as prohibited substances. At the 30th day from the onset of subarachnoid hemorrhage, an evaluation was carried out by the Glasgow Outcome Scale (GOS).

[1] = 30th day from onset, 32 patients per group, 1,800 mg/day
[2] = 32 patients per group, 1,800 mg/day

## CC/C=C\C/C=C\C/C=C\C/C=C\C/C=C\CCCC(=O)OCC [EPA, ethyl eicosapentaenoate]
[1]
  GOS: D (Death), number of patients: 1
  GOS: MD (Moderate disability), number of patients: 6
  GOS: SD (Severe disability), number of patients: 2
  GOS: VS (Vegetative state), number of patients: 2
30th day from onset, 32 patients per group, 1,800 mg/day in three doses, oral or stomach tube, Wilcoxon U test P=0.0128 vs non-administration group
  GOS: GR (Good recovery), number of patients: 21
[2]
  Death, number of patients: 1
  Survival, number of patients: 31
32 patients per group, 1,800 mg/day, Fisher's exact test P=0.0265 vs non-administration group
  Survival rate: 97%
Subarachnoid hemorrhage patients, 1,800 mg/day for 14 days and continued during hospital stay
  Adverse event considered as a result of the EPA administration: not found
